This experiment has as its system L1210 leukemia ip in BDF1 mice, survival T/C. Description: NCI In Vivo Anticancer Drug Screen. Data for tumor model L1210 Leukemia (intraperitoneal) in B6D2F1 (BDF1) mice. To be noted: endpoint: mean survival time, higher = longer survival. The procedure, abridged: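 Ratio derived from survival: compound-dosed mice over vehicle-dosed mice, all bearing a transplantable tumor.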

Structures are written as SMILES. “And” between values parts separate entries of the source, which are not always exact repeats. Equal entries are not always repeated. Inconclusive results and toxic doses are left out.

As for `CCCOC1=C(N2CC2)C(=O)C(OCCC)=C(N2CC2)C1=O`, the T/C (dose: 0.23 mg/kg/injection, schedule: Q01DX009 (ip), vehicle: Klucel (hydroxypropylcellulose) (HPC)) was 103 % of control; the T/C (dose: 0.46 mg/kg/injection, schedule: Q01DX009 (ip), vehicle: Klucel (hydroxypropylcellulose) (HPC)) was 107 % of control; the T/C (dose: 0.62 mg/kg/injection, schedule: Q#A X Z (ip), vehicle: alkali diluted with saline) is 113 % of control; the T/C (dose: 0.93 mg/kg/injection, schedule: Q01DX009 (ip), vehicle: Klucel (hydroxypropylcellulose) (HPC)) is 108 % of control; the T/C (dose: 1.25 mg/kg/injection, schedule: Q01DX006 (iv), vehicle: alkali diluted with saline) was 113 % of control; the T/C (dose: 1.25 mg/kg/injection, schedule: Q01DX Z (im), vehicle: alkali diluted with saline) was 113 % of control. For the same molecule, the T/C is 104 % of control (dose: 1.25 mg/kg/injection, schedule: Q01DX Z (ip), vehicle: alkali diluted with saline); 113 % of control (dose: 1.25 mg/kg/injection, schedule: Q01DX Z (sc), vehicle: alkali diluted with saline); 121 % of control (dose: 1.25 mg/kg/injection, schedule: Q#A X Z (ip), vehicle: alkali diluted with saline); 114 % of control (dose: 1.87 mg/kg/injection, schedule: Q01DX009 (ip), vehicle: Klucel (hydroxypropylcellulose) (HPC)); 106 % of control (dose: 1.87 mg/kg/injection, schedule: Q04DX003 (ip), vehicle: Klucel (hydroxypropylcellulose) (HPC)); 109 % of control (dose: 2.5 mg/kg/injection, schedule: Q01DX006 (iv), vehicle: alkali diluted with saline). For the same molecule, the T/C runs as follows: (dose: 2.5 mg/kg/injection, schedule: Q01DX Z (im), vehicle: alkali diluted with saline) 122 % of control; (dose: 2.5 mg/kg/injection, schedule: Q01DX Z (sc), vehicle: alkali diluted with saline) 110 % of control; (dose: 3.0 mg/kg/injection, schedule: Q03DX006 (ip), vehicle: alkali diluted with saline) 107 % of control; (dose: 3.75 mg/kg/injection, schedule: Q01DX009 (ip), vehicle: Klucel (hydroxypropylcellulose) (HPC)) 122 % of control; (dose: 3.75 mg/kg/injection, schedule: Q04DX003 (ip), vehicle: Klucel (hydroxypropylcellulose) (HPC)) 118 % of control; (dose: 5.0 mg/kg/injection, schedule: Q01DX006 (iv), vehicle: alkali diluted with saline) 122 % of control. The T/C runs as follows: (dose: 5.0 mg/kg/injection, schedule: Q01DX Z (oral), vehicle: alkali diluted with saline) 113 % of control; (dose: 5.0 mg/kg/injection, schedule: Q#A X Z (ip), vehicle: alkali diluted with saline) 158 % of control; (dose: 7.0 mg/kg/injection, schedule: Q03DX006 (ip), vehicle: alkali diluted with saline) 115 % of control; (dose: 10.0 mg/kg/injection, schedule: Q01DX001 (ip), vehicle: alkali diluted with saline) 112 % of control; (dose: 10.0 mg/kg/injection, schedule: Q01DX006 (iv), vehicle: alkali diluted with saline) 115 % of control; (dose: 10.0 mg/kg/injection, schedule: Q01DX Z (im), vehicle: alkali diluted with saline) 163 % of control. Moreover, the T/C is 115 % of control (dose: 10.0 mg/kg/injection, schedule: Q01DX Z (oral), vehicle: alkali diluted with saline); 96 % of control (dose: 10.0 mg/kg/injection, schedule: Q07DX003 (ip), vehicle: alkali diluted with saline); 153 % of control (dose: 15.0 mg/kg/injection, schedule: Q03DX006 (ip), vehicle: alkali diluted with saline); 104 % of control and 115 % of control (dose: 20.0 mg/kg/injection, schedule: Q01DX001 (ip), vehicle: alkali diluted with saline); 103 % of control (dose: 20.0 mg/kg/injection, schedule: Q01DX006 (iv), vehicle: alkali diluted with saline); 94 % of control (dose: 20.0 mg/kg/injection, schedule: Q01DX Z (im), vehicle: alkali diluted with saline). Further, the T/C (dose: 20.0 mg/kg/injection, schedule: Q01DX Z (sc), vehicle: alkali diluted with saline) was 120 % of control; the T/C (dose: 20.0 mg/kg/injection, schedule: Q07DX003 (ip), vehicle: alkali diluted with saline) was 106 % of control; the T/C (dose: 20.0 mg/kg/injection, schedule: Q#A X Z (ip), vehicle: alkali diluted with saline) was 103 % of control; the T/C (dose: 30.0 mg/kg/injection, schedule: Q03DX006 (ip), vehicle: alkali diluted with saline) was 117 % of control; the T/C (dose: 30.0 mg/kg/injection, schedule: Q04DX003 (ip), vehicle: Klucel (hydroxypropylcellulose) (HPC)) was 102 % of control; the T/C (dose: 40.0 mg/kg/injection, schedule: Q01DX001 (ip), vehicle: alkali diluted with saline) is 118 % of control. The T/C (dose: 40.0 mg/kg/injection, schedule: Q01DX006 (iv), vehicle: alkali diluted with saline) is 123 % of control; the T/C (dose: 40.0 mg/kg/injection, schedule: Q01DX Z (im), vehicle: alkali diluted with saline) was 121 % of control; the T/C (dose: 40.0 mg/kg/injection, schedule: Q01DX Z (ip), vehicle: alkali diluted with saline) was 106 % of control; the T/C (dose: 40.0 mg/kg/injection, schedule: Q01DX Z (sc), vehicle: alkali diluted with saline) was 113 % of control; the T/C (dose: 40.0 mg/kg/injection, schedule: Q07DX003 (ip), vehicle: alkali diluted with saline) was 124 % of control; the T/C (dose: 80.0 mg/kg/injection, schedule: Q01DX001 (ip), vehicle: alkali diluted with saline) is 124 % of control. In addition, the T/C by setting is: (dose: 80.0 mg/kg/injection, schedule: Q01DX Z (oral), vehicle: alkali diluted with saline) 122 % of control; (dose: 125.0 mg/kg/injection, schedule: Q01DX001 (ip), vehicle: alkali diluted with saline) 103 % of control; (dose: 160.0 mg/kg/injection, schedule: Q01DX001 (ip), vehicle: alkali diluted with saline) 115 % of control and 121 % of control; (dose: 160.0 mg/kg/injection, schedule: Q07DX003 (ip), vehicle: alkali diluted with saline) 111 % of control; (dose: 320.0 mg/kg/injection, schedule: Q01DX001 (ip), vehicle: alkali diluted with saline) 107 % of control and 113 % of control; (dose: 320.0 mg/kg/injection, schedule: Q07DX003 (ip), vehicle: alkali diluted with saline) 111 % of control. Also, the T/C (dose: 500.0 mg/kg/injection, schedule: Q01DX001 (ip), vehicle: alkali diluted with saline) is 102 % of control; the T/C (dose: 640.0 mg/kg/injection, schedule: Q07DX003 (ip), vehicle: alkali diluted with saline) is 123 % of control; the T/C (dose: 1000.0 mg/kg/injection, schedule: Q01DX001 (ip), vehicle: alkali diluted with saline) is 106 % of control.

As for `N#C/C(=C\c1ccccn1)c1ccc(Cl)cc1`, the T/C was 95 % of control (dose: 100.0 mg/kg/injection, schedule: Q01DX001 (ip), vehicle: other); 92 % of control (dose: 200.0 mg/kg/injection, schedule: Q01DX001 (ip), vehicle: other); 94 % of control (dose: 400.0 mg/kg/injection, schedule: Q01DX001 (ip), vehicle: other).

In the case of `C1CCC(C2CCC(C3CCCC3)C2)C1` (stereo not given), the T/C is, setting by setting: (dose: 100.0 mg/kg/injection, schedule: Q04DX002 (ip), vehicle: saline with Tween-80) 91 % of control; (dose: 200.0 mg/kg/injection, schedule: Q04DX002 (ip), vehicle: saline with Tween-80) 94 % of control; (dose: 400.0 mg/kg/injection, schedule: Q04DX002 (ip), vehicle: saline with Tween-80) 91 % of control.

Take `O=C(Nc1cc([N+](=O)[O-])ccc1O)Nc1cc([N+](=O)[O-])ccc1F`: the T/C was 100 % of control (dose: 100.0 mg/kg/injection, schedule: Q04DX003 (ip), vehicle: Klucel (hydroxypropylcellulose) (HPC)); 94 % of control (dose: 200.0 mg/kg/injection, schedule: Q04DX003 (ip), vehicle: Klucel (hydroxypropylcellulose) (HPC)); 98 % of control (dose: 400.0 mg/kg/injection, schedule: Q04DX003 (ip), vehicle: Klucel (hydroxypropylcellulose) (HPC)).

Turning to `CC#N.CC#N.[Cl][Pt][Cl]`, the T/C is 119 % of control (dose: 6.25 mg/kg/injection, schedule: Q04DX003 (ip), vehicle: water); 117 % of control (dose: 12.5 mg/kg/injection, schedule: Q04DX003 (ip), vehicle: water); 122 % of control (dose: 25.0 mg/kg/injection, schedule: Q04DX003 (ip), vehicle: water); 118 % of control (dose: 50.0 mg/kg/injection, schedule: Q04DX003 (ip), vehicle: water).

As to `C=C1c2ccccc2N(C)C1(COc1ccc(Br)cc1)OC(=O)c1cccc(Cl)c1` (stereo not given), the T/C (dose: 100.0 mg/kg/injection, schedule: Q04DX002 (ip), vehicle: Klucel (hydroxypropylcellulose) (HPC)) was 95 % of control; the T/C (dose: 200.0 mg/kg/injection, schedule: Q04DX002 (ip), vehicle: Klucel (hydroxypropylcellulose) (HPC)) is 95 % of control; the T/C (dose: 400.0 mg/kg/injection, schedule: Q04DX002 (ip), vehicle: Klucel (hydroxypropylcellulose) (HPC)) is 98 % of control.

Turning to `CCOC(=O)c1cnc(SC)nc1NCc1ccccc1C`, the T/C (dose: 100.0 mg/kg/injection, schedule: Q04DX003 (ip), vehicle: saline with Tween-80) was 94 % of control; the T/C (dose: 200.0 mg/kg/injection, schedule: Q04DX003 (ip), vehicle: saline with Tween-80) is 94 % of control; the T/C (dose: 400.0 mg/kg/injection, schedule: Q04DX003 (ip), vehicle: saline with Tween-80) was 92 % of control.
